pEC50: −log10 of the molar value. Where “and” joins values, the source holds several entries; their conditions need not be identical. Equal entries are not always repeated. Entries after “also recorded” stand apart in the source; their conditions may differ.
What was measured:
IDE [1] = molecular target: T1, IDE (Homo sapiens, UniProt P14735); assay: Degradation of FITC-insulin-mAb by IDE; type: biochemical; settings: for increase of IDE-mediated insulin (FITC-insulin-mAb) degradation: 20 µM compound; for effect of ATP on IDE activity for insulin degradation in presence of compound: 0.1 mM ATP; for pEC50: dose response, Sigmoidal Hill 4 parameter fit; for increase of initial rate of proteolysis of FITC-insulin bound with antibody: wild type IDE, presence vs absence of compound
T1 construct: made in house; host or cells: E. coli BL21
T1 sequence (P14735 1-1019): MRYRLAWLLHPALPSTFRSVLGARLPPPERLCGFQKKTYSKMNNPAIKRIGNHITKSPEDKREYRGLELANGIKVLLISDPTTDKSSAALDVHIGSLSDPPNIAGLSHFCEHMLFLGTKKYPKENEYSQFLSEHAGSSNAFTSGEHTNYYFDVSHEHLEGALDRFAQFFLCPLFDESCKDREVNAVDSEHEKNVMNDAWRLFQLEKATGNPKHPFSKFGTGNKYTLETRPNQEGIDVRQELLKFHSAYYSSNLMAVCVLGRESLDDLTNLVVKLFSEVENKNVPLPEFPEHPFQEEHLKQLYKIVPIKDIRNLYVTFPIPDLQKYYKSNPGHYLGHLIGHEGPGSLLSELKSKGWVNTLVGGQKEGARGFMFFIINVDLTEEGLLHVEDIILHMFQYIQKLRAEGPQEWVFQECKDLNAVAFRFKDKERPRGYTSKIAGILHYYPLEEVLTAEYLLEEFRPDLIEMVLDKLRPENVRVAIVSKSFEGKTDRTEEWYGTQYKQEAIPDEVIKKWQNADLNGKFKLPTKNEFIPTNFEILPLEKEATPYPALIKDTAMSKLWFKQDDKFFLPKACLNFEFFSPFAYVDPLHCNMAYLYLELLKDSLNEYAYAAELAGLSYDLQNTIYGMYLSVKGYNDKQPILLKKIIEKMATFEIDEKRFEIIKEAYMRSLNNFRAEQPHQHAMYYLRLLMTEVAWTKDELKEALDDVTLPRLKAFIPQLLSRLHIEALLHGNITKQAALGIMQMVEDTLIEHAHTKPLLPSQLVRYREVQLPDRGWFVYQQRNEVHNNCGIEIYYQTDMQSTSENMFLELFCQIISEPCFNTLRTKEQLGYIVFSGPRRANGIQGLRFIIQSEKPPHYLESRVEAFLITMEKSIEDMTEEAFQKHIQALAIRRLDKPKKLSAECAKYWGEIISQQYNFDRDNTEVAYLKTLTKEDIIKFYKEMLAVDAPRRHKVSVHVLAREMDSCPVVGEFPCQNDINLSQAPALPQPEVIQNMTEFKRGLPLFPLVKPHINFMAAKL
Procedure: (§1) The 10 compounds given in Table 1 were subjected to further characterization and their effect was measured on the proteolytic activity of IDE using different substrates. Initially, activity assays were carried out at fixed 20 µM concentrations for all molecules to identify the effect of those compounds on IDE activity. IDE activity was quantified by monitoring the change in fluorescence for the proteolysis of fluorogenic-substrate V, FITC- insulin-bound antibody, and FAβB by recombinant human IDE purified from E.coli BL21 [6], [18], [19]. […] Also, D6 increased the amyloid-β degradation by 20% (Fig. S1C). Further, D10 enhanced IDE-mediated FITC-insulin-mAb and substrate V degradation by 290% and 65%, respectively (Fig. S1A, B). Next, an EC50 value of each molecule that enhanced IDE activity was determined with a dose response assay, where specific activity of IDE was measured with different concentrations of the lead compounds and then the plot was fit to Sigmoidal Hill-4 parameter equation. […] EC50 value for D3 on insulin degradation was approximately measured as 20 µM (Fig. S2C), whereas EC50 value for D6 on amyloid-β degradation was 2 µM (Fig. S2D). […] Among all these four compounds, D10 seems to be the potent activator of IDE, when proteolysis of insulin is considered.
In order to measure degradation of insulin by IDE, FITC-insulin is bound to the monoclonal mouse anti-human-insulin, so that the rotation of free FITC and possible changes in fluorescence polarization could be prevented. We performed enzymatic assays, using only FITC-insulin bound antibody as a background fluorescence and checked the effects of compounds on the cleavage of FITC-insulin-mAb. FITC-insulin is bound to mouse anti human insulin antibody in PBS at 37°C for 1 hour, which is higher than the optimum time required to obtain maximum binding of insulin-FITC conjugate and mAb. It is observed that 400 nM mAb completely binds to 50 nM FITC-insulin (Fig. S7). Since molecular weights of FITC-insulin and mAb are about 5.8 kDa and 60 kDa respectively, we observed very slight shift in the gel as expected. In figure S7, it is observed in lane 4 that 50 nM (100 ng) insulin is completely bound to 400 nM mAb in lane 4 (Fig. S7). […] The binding between insulin and mAb is shown by performing (%5 and %15) native polyacrylamide gel electrophoresis.
The utility of these novel compounds were tested on degradation of insulin by IDE. First insulin was labeled with FITC as described previously. Briefly, 500 mg insulin dissolved in 1.5 ml of 0.1 M Na-carbonate, at pH 7, and 0.2 mM EDTA. Then, 4.5 mg FITC was dissolved in 200 µl acetone and was added dropwise to previous solution at room temperature for 20 h ([FITC]∶[insulin], 3∶1). Finally, unreacted FITC was removed by dialysis and the FITC-insulin was stored at −20°C. The proteolysis of insulin by IDE was monitored by measuring the changes in fluorescence, where the reaction was carried out with 100 nM of FITC- insulin-mAb and IDE (80 ng) in 100 µl KH2PO4 buffer at a pH of 7.3. Reaction was carried out at 37°C for different time intervals (0–4 hours). The increase in fluorescence was monitored by using Fluoroskan Ascent FL microplate reader (Thermo).
(§2) The effect of the lead compounds on the initial rate of proteolysis of IDE was determined by measurement in fluorescence with time both in the presence and absence of the lead compounds. The kinetic data for IDE-mediated insulin, substrate V and amyloid-β degradation were plotted and fitted using SigmaPlot software (Sigmoidal, Hill, 4 parameter). For the initial rate calculations, kinetic data were fitted using SigmaPlot software (Hyperbola; Single Rectangular I, 3 Parameter).

IDE [2] = molecular target: T1, IDE; assay: FAβB (amyloid-β) degradation assay; type: biochemical; settings: 20 µM compound
Procedure: as §1
This assay was performed as follows: 10 µl of 50 nM of FAβB was dissolved in a buffer which consisted of 50 mM HEPES, 100 mM NaCl, % 0,05 (v/v) bovine serum albumin, at a pH of 7.4. The reaction was initiated in a total volume of 100 µl with 20 µM drugs by adding 20 µl of 0.02 mg/ml of IDE for 2.5 h at 37°C. The reaction was stopped by adding 2 µl of 100 mM of protease inhibitor (1, 10-phenanthroline). Uncleaved FAβB was precipitated with Neutravidin- coated agarose beads by gentle rocking for 30 min. and centrifugation for 10 min at 14000 g. The supernatant was transferred to the black 96 well plates and increase in fluorescence (488 excitation, 525 emission) was measured with a multi-label plate reader.
as §2

| SMILES | increase of IDE-mediated insulin (FITC-insulin-mAb) degradation (IDE [1]) | effect of ATP on IDE activity for insulin degradation in presence of compound (IDE [1]) | pEC50 (IDE [1]) | increase of initial rate of proteolysis of FITC-insulin bound with antibody (IDE [1]) [fold] | effect on proteolysis activity of IDE for amyloid-β (IDE [2]) |
| --- | --- | --- | --- | --- | --- |
| COc1ccc(C2C(C(=O)Nc3ccccc3)=C(C)N=c3sc(=Cc4cn(C)nc4C)c(=O)n32)cc1 (stereo not drawn) [Compound D3] | 72% | did not change significantly; also recorded: no effect | ~4.70 | ~7.5 | did not have any effect |
| Nc1c(C(=O)Nc2ccccc2F)c2ccccn2c1C(=O)c1ccc2c(c1)CCCC2 [Compound D4] | 60% | did not change significantly; also recorded: no effect | 4.89 | ~12 | did not have any effect |
| Cc1nn(-c2ccccc2)c2nc(-c3cccc([N+](=O)[O-])c3)n3c4ccccc4nc3c2c1=O [Compound D10] | 290% and ~275% | did not change significantly; also recorded: no effect | 4.92 | ~49 | did not have any effect |

Source: article PMC3280214, “Structure Based Discovery of Small Molecules to Regulate the Activity of Human Insulin Degrading Enzyme” (PLoS ONE, 2012)
